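Grown in 96-well plates, cells were treated for 48 hours with each compound at five concentrations. Insufficient inhibition: endpoint recorded as highest concentration tested. The concentration for 50% growth inhibition is given as GI50. Definition used: TGI = concentration required for complete inhibition of growth.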
Legend:
Test in all cases: NCI tumour cell line growth inhibition, 48 h
BT-549 breast = test system: BT-549 breast
HCT-15 colon = test system: HCT-15 colon
OVCAR-8 ovarian = test system: OVCAR-8 ovarian
HOP-92 NSCLC = test system: HOP-92 NSCLC
SK-MEL-28 melanoma = test system: SK-MEL-28 melanoma
SF-295 CNS = test system: SF-295 CNS
NCI-H522 lung = test system: NCI-H522 lung
COLO 205 colon = test system: COLO 205 colon
U251 CNS = test system: U251 CNS
RXF 393 renal = test system: RXF 393 renal
HT29 colon = test system: HT29 colon
DU-145 prostate = test system: DU-145 prostate
UACC-62 melanoma = test system: UACC-62 melanoma
MDA-MB-435 = test system: MDA-MB-435
A498 renal = test system: A498 renal
HL-60(TB) leukemia = test system: HL-60(TB) leukemia
OVCAR-4 ovarian = test system: OVCAR-4 ovarian

SMILES	TGI (BT-549 breast) [µM]	TGI (HCT-15 colon) [µM]	TGI (OVCAR-8 ovarian) [µM]	TGI (HOP-92 NSCLC) [µM]	TGI (SK-MEL-28 melanoma) [µM]	TGI (SF-295 CNS) [µM]	TGI (NCI-H522 lung) [µM]	TGI (COLO 205 colon) [µM]	TGI (U251 CNS) [µM]	TGI (RXF 393 renal) [µM]	TGI (HT29 colon) [µM]	TGI (DU-145 prostate) [µM]	TGI (UACC-62 melanoma) [µM]	TGI (MDA-MB-435) [µM]	TGI (A498 renal) [µM]	TGI (HL-60(TB) leukemia) [µM]	TGI (OVCAR-4 ovarian) [µM]	GI50 (NCI-H522 lung) [µM]
COc1ccc(N=C2C(=Nc3ccc(OC)cc3)N(c3ccccc3)C(=S)N2N=C=C2Sc3ccccc3N2C)cc1	> 100	> 100	> 100	> 100	> 100	> 100	> 100	> 100	> 100	> 100	> 100	> 100	> 100	> 100				
COc1ccc(/C=C2\CN(C)C/C(=C\c3ccc(OC)c(OC)c3OC)C2=O)c(OC)c1OC			0.343	1.73	0.393	1.01	0.473	0.287	0.177	0.342		1.39	0.548	0.0541	0.313	0.044	1.13	
CCN(CC)CCNCc1cc(Cl)cc2c1OCOC2		> 10	> 10		> 10	> 10	> 10	> 10	> 10	> 10	> 10	> 10	> 10	> 10	> 10	> 10	> 10	
CCOC(=O)CSc1nnc(C(Sc2nc(-c3ccccc3)c(-c3ccccc3)[nH]2)C(C)C)n1-c1ccccc1 (configuration not stated)	52.9	> 31.6	> 31.6	> 10	29	> 10	26.9	28.6	> 10	67.1	19.4	> 100	> 10		> 10	> 31.6	28.5	
COc1cc2c(cc1OC)C1(c3ccc(Cl)cc3)ON=C(c3ccccc3)N1CS2 (configuration not stated)		> 100		> 100	> 100	> 100	> 100	> 100	> 100	> 100	> 100		> 100		> 100	> 100	> 100	
COc1cc([C@@H]2c3cc(O)c(OC)cc3C=C(C(N)=O)[C@H]2C(N)=O)ccc1O		> 100	> 100	> 100	> 100	> 100	> 100	> 100	> 100	> 100	> 100	> 100		> 100	> 100	> 100		
COc1ccc(-n2cnc3c(NC(CCSC)C(=O)O)ncnc32)cc1 (configuration not stated)	> 100	> 100	> 100	> 100	> 100	> 100	> 100	> 100	> 100		> 100	> 100	> 100	> 100	> 100		> 100	
CCCc1ccc(NCc2cc(OC)c(OC)c(OC)c2)cc1		32.1	> 100	75.8	73.9		34.3		81.9	61.7	61.7		> 100		98.6		> 100	17.3
CC(NC(C)(C)C)C(=O)c1cccc(Cl)c1 (configuration not stated)			> 100		> 100	> 100	> 100	> 100	> 100	> 100	> 100		> 100		> 100		> 100	
Cc1ccc(N=Nc2c(O)c(C(=O)Nc3ccccc3)cc3ccccc23)c([N+](=O)[O-])c1	> 100	> 100	> 100	> 100	> 100	> 100	> 100	> 100	> 100	> 100	> 100	> 100	> 100	> 100	> 100		> 100	
O=C(CC(=O)Nc1ccccc1)N/N=C/c1cc(N=Nc2ccc(Br)cc2)ccc1O	> 10	> 10	> 10	> 10	> 10			> 10	> 10			> 10	> 10			6	> 10	
Nc1ccc(C(=O)NN2C(=O)C(Cl)C2c2ccccc2)cc1 (configuration not stated)		> 100	> 100	> 100	> 100	> 100	> 100	> 100	> 100		> 100		> 100		> 100		> 100	
CC(C)=C/C=C1/CS(=O)(=O)C=C1C		> 100	> 100		> 100	> 100	> 100	> 100	> 100	> 100	> 100	> 100	> 100	> 100	> 100	> 100		
O=C(CSC1=NCCN1)Nc1ccccc1	59.5	> 100	> 100	91	62.6	> 100	38.7		39.2	33.3	> 100	> 100	52.4	> 100	> 100		> 100	
O=C(Cc1ccccc1)NN1C(=O)C(Cl)C1c1ccccc1O (configuration not stated)		> 100	> 100		> 100	> 100	> 100	> 100	> 100	> 100	> 100		> 100			18.8	> 100	
O=C(O)CNC(=O)c1c2ccccc2nc2ccccc12	> 100	> 100	> 100	> 100	> 100	> 100	> 100	> 100	> 100		> 100	> 100	> 100	> 100	> 100		> 100	
O=C1C[C@@H](c2ccccc2)O[C@@H](c2ccccc2)C1	> 100	> 100	> 100	> 100		> 100		> 100	> 100	> 100	> 100	> 100	> 100	> 100			> 100	

Source: PubChem BioAssay (NCI)
